# Source: patent publication US20240218022A1, “ANTI-VISTA MACROCYCLIC PEPTIDES AND COMPOSITIONS” (BRISTOL-MYERS SQUIBB COMPANY, priority 2022, published 2024)
# Starred links: 1 amine or outer side, 2 acyl side, 3 side chain; linkers in the order of their positions; H or OH if unused. Positions of bridges follow the written chain, without caps; N, C: chain ends. Non-standard residues stand in square brackets, D forms with d. Residues, ends and D or L forms follow the SMILES beside them. ξ: configuration not given here. Phe(3-CF3) = N[C@@H](Cc1cccc(C(F)(F)F)c1)C(=O)O; Phe(4-CONH2) = NC(=O)c1ccc(C[C@H](N)C(=O)O)cc1; Phe(2,4-F2) = N[C@@H](Cc1ccc(F)cc1F)C(=O)O; X1 = C=CCOc1ccccc1C[C@H](N[*:1])C(=O)[*:2]; Phe(3-Br) = N[C@@H](Cc1cccc(Br)c1)C(=O)O; Phe(3-CN) = N#Cc1cccc(C[C@H](N)C(=O)O)c1; Phe(3-Cl) = N[C@@H](Cc1cccc(Cl)c1)C(=O)O; Phe(3-Me) = Cc1cccc(C[C@H](N)C(=O)O)c1; Phe(4-Me) = Cc1ccc(C[C@H](N)C(=O)O)cc1; 2Nal = N[C@@H](Cc1ccc2ccccc2c1)C(=O)O; Phe(2-Me) = Cc1ccccc1C[C@H](N)C(=O)O; Ahp(2) = CCCCC[C@H](N)C(=O)O; NMeNle = CCCC[C@H](NC)C(=O)O; Tle = CC(C)(C)[C@H](N)C(=O)O; NHexGly = CCCCCCNCC(=O)O; Nle = CCCC[C@H](N)C(=O)O; ξS = NC(CO)C(=O)O
# Molecular target: T1, mouse VISTA (mVISTA) (Mus musculus, UniProt Q9D659)
# T1 construct: expressed in transfected cells; host or cells: Human embryonic kidney 293T cells
# T1 sequence (Q9D659 33-308): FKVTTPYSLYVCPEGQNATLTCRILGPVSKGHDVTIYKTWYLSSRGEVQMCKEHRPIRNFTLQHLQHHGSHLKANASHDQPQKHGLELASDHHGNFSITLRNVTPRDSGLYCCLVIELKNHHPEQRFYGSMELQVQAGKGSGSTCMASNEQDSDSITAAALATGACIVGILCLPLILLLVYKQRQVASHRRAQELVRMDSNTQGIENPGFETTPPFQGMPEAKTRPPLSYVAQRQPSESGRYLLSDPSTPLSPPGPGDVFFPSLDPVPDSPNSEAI
# Test: Cell-Based Binding High-Content Assay For mVISTA (HC CBA mVISTA)
# Conditions: read-out: HC CBA mVISTA IC50
# Method in brief: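 293T cells expressing mouse VISTA, with compounds added either after seeding ("no wash") or before seeding and then washed out after 1 h. Biotinylated peptide 2 nM for 30 min at room temperature, then detection with Alexa 647–streptavidin. After fixation with Hoechst stain, plates were high-content imaged; IC50 from four-parameter logistic fit.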
row,SMILES,IC50 [nM]
1,"CCCCCCN1CC(=O)N[C@@H](Cc2ccc(O)cc2)C(=O)N[C@@H](CCCCC)C(=O)N[C@@H](CC(N)=O)C(=O)N[C@@H](CCCNC(=N)N)C(=O)N(C)[C@@H](CCCC)C(=O)N[C@@H](CCCCC)C(=O)N2CCC[C@H]2C(=O)N[C@@H](C(C)C)C(=O)N[C@@H](CC(=O)O)C(=O)N[C@H](C(=O)NCC(=O)O)CSCC(=O)N[C@@H](Cc2ccc3ccccc3c2)C(=O)N[C@@H](Cc2ccc(F)cc2F)C(=O)N[C@@H](CC(=O)O)C1=O [compound 1201] ({CH2CO}-[2Nal][Phe(2,4-F2)]D[NHexGly]Y[Ahp(2)]NR[NMeNle][Ahp(2)]PVDCG-OH; thioether N-14)",11.9
2,"CCCCCCN1CC(=O)N[C@@H](Cc2ccc(O)cc2)C(=O)N[C@@H](CCCCC)C(=O)N[C@@H](CC(N)=O)C(=O)N[C@@H](CCCNC(=N)N)C(=O)N(C)[C@@H](CCCC)C(=O)N[C@@H](CCCCC)C(=O)N2CCC[C@H]2C(=O)N[C@@H](C(C)C)C(=O)N[C@@H](CC(=O)O)C(=O)N[C@H](C(=O)NC(CO)C(=O)O)CSCC(=O)N[C@@H](Cc2ccc3ccccc3c2)C(=O)N[C@@H](Cc2ccc(F)cc2F)C(=O)N[C@@H](CC(=O)O)C1=O (stereo partly drawn) [compound 1202] ({CH2CO}-[2Nal][Phe(2,4-F2)]D[NHexGly]Y[Ahp(2)]NR[NMeNle][Ahp(2)]PVDC[ξS]-OH; thioether N-14)",16.1
3,CCCCCCN1CC(=O)N[C@@H](Cc2ccc(O)cc2)C(=O)N[C@@H](CC(C)C)C(=O)N[C@@H](CC(N)=O)C(=O)N[C@@H](CCCNC(=N)N)C(=O)N(C)[C@@H](CCCC)C(=O)N[C@@H](CCCCC)C(=O)N2CCC[C@H]2C(=O)N[C@@H](C(C)(C)C)C(=O)N[C@@H](CO)C(=O)N[C@H](C(=O)NCC(N)=O)CSCC(=O)N[C@@H](Cc2ccccc2)C(=O)N[C@@H](Cc2cccc(Br)c2)C(=O)N[C@@H](CC(=O)O)C1=O [compound 1203] ({CH2CO}-F[Phe(3-Br)]D[NHexGly]YLNR[NMeNle][Ahp(2)]P[Tle]SCG-NH2; thioether N-14),50.7
4,CCCCCCN1CC(=O)N[C@@H](Cc2ccc(O)cc2)C(=O)N[C@@H](CC(C)C)C(=O)N[C@@H](CC(N)=O)C(=O)N[C@@H](CCCNC(=N)N)C(=O)N(C)[C@@H](CCCC)C(=O)N[C@@H](CCCCC)C(=O)N2CCC[C@H]2C(=O)N[C@@H](C(C)C)C(=O)N[C@@H](CO)C(=O)N[C@H](C(=O)NCC(N)=O)CSCC(=O)N[C@@H](Cc2ccccc2C)C(=O)N[C@@H](Cc2ccc(O)cc2)C(=O)N[C@@H](CC(=O)O)C1=O [compound 1204] ({CH2CO}-[Phe(2-Me)]YD[NHexGly]YLNR[NMeNle][Ahp(2)]PVSCG-NH2; thioether N-14),18.4
5,CCCCCCN1CC(=O)N[C@@H](Cc2ccc(O)cc2)C(=O)N[C@@H](CC(C)C)C(=O)N[C@@H](CC(N)=O)C(=O)N[C@@H](CCCNC(=N)N)C(=O)N(C)[C@@H](CCCC)C(=O)N[C@@H](CCCCC)C(=O)N2CCC[C@H]2C(=O)N[C@@H](C(C)(C)C)C(=O)N[C@@H](CO)C(=O)N[C@H](C(=O)NCC(N)=O)CSCC(=O)N[C@@H](Cc2ccccc2C)C(=O)N[C@@H](Cc2ccc(O)cc2)C(=O)N[C@@H](CC(=O)O)C1=O [compound 1205] ({CH2CO}-[Phe(2-Me)]YD[NHexGly]YLNR[NMeNle][Ahp(2)]P[Tle]SCG-NH2; thioether N-14),16.4
6,C=CCOc1ccccc1C[C@@H]1NC(=O)CSC[C@@H](C(=O)NCC(N)=O)NC(=O)[C@H](CO)NC(=O)[C@H](C(C)(C)C)NC(=O)[C@@H]2CCCN2C(=O)[C@H](CCCCC)NC(=O)[C@H](CCCC)N(C)C(=O)[C@H](CCCNC(=N)N)NC(=O)[C@H](CC(N)=O)NC(=O)[C@H](CC(C)C)NC(=O)[C@H](Cc2ccc(O)cc2)NC(=O)CN(CCCCCC)C(=O)[C@H](CC(=O)O)NC(=O)[C@H](Cc2ccc(O)cc2)NC1=O [compound 1206] ({CH2CO}-[X1]YD[NHexGly]YLNR[NMeNle][Ahp(2)]P[Tle]SCG-NH2; thioether N-14),28.2
7,CCCCCCN1CC(=O)N[C@@H](Cc2ccc(O)cc2)C(=O)N[C@@H](CC(C)C)C(=O)N[C@@H](CC(N)=O)C(=O)N[C@@H](CCCNC(=N)N)C(=O)N(C)[C@@H](CCCC)C(=O)N[C@@H](CCCCC)C(=O)N2CCC[C@H]2C(=O)N[C@@H](C(C)(C)C)C(=O)N[C@@H](CO)C(=O)N[C@H](C(=O)NCC(N)=O)CSCC(=O)N[C@@H](Cc2cccc(C(F)(F)F)c2)C(=O)N[C@@H](Cc2ccc(O)cc2)C(=O)N[C@@H](CC(=O)O)C1=O [compound 1207] ({CH2CO}-[Phe(3-CF3)]YD[NHexGly]YLNR[NMeNle][Ahp(2)]P[Tle]SCG-NH2; thioether N-14),24.5
8,CCCCCCN1CC(=O)N[C@@H](Cc2ccc(O)cc2)C(=O)N[C@@H](CC(C)C)C(=O)N[C@@H](CC(N)=O)C(=O)N[C@@H](CCCNC(=N)N)C(=O)N(C)[C@@H](CCCC)C(=O)N[C@@H](CCCCC)C(=O)N2CCC[C@H]2C(=O)N[C@@H](C(C)C)C(=O)N[C@@H](CO)C(=O)N[C@H](C(=O)NCC(N)=O)CSCC(=O)N[C@@H](Cc2cccc(Cl)c2)C(=O)N[C@@H](Cc2ccc(O)cc2)C(=O)N[C@@H](CC(=O)O)C1=O [compound 1208] ({CH2CO}-[Phe(3-Cl)]YD[NHexGly]YLNR[NMeNle][Ahp(2)]PVSCG-NH2; thioether N-14),27.7
9,CCCCCCN1CC(=O)N[C@@H](Cc2ccc(O)cc2)C(=O)N[C@@H](CC(C)C)C(=O)N[C@@H](CC(N)=O)C(=O)N[C@@H](CCCNC(=N)N)C(=O)N(C)[C@@H](CCCC)C(=O)N[C@@H](CCCCC)C(=O)N2CCC[C@H]2C(=O)N[C@@H](C(C)(C)C)C(=O)N[C@@H](CO)C(=O)N[C@H](C(=O)NCC(N)=O)CSCC(=O)N[C@@H](Cc2cccc(Cl)c2)C(=O)N[C@@H](Cc2ccc(O)cc2)C(=O)N[C@@H](CC(=O)O)C1=O [compound 1209] ({CH2CO}-[Phe(3-Cl)]YD[NHexGly]YLNR[NMeNle][Ahp(2)]P[Tle]SCG-NH2; thioether N-14),33.2
10,CCCCCCN1CC(=O)N[C@@H](Cc2ccc(O)cc2)C(=O)N[C@@H](CC(C)C)C(=O)N[C@@H](CC(N)=O)C(=O)N[C@@H](CCCNC(=N)N)C(=O)N(C)[C@@H](CCCC)C(=O)N[C@@H](CCCCC)C(=O)N2CCC[C@H]2C(=O)N[C@@H](C(C)(C)C)C(=O)N[C@@H](CO)C(=O)N[C@H](C(=O)NCC(N)=O)CSCC(=O)N[C@@H](Cc2cccc(C#N)c2)C(=O)N[C@@H](Cc2ccc(O)cc2)C(=O)N[C@@H](CC(=O)O)C1=O [compound 1210] ({CH2CO}-[Phe(3-CN)]YD[NHexGly]YLNR[NMeNle][Ahp(2)]P[Tle]SCG-NH2; thioether N-14),38.3
11,CCCCCCN1CC(=O)N[C@@H](Cc2ccc(O)cc2)C(=O)N[C@@H](CCCC)C(=O)N[C@@H](CC(N)=O)C(=O)N[C@@H](CCCNC(=N)N)C(=O)N(C)[C@@H](CCCC)C(=O)N[C@@H](CCCCC)C(=O)N2CCC[C@H]2C(=O)N[C@@H](C(C)C)C(=O)N[C@@H](CC(=O)O)C(=O)N[C@H](C(=O)NCC(=O)O)CSCC(=O)N[C@@H](Cc2cccc(C)c2)C(=O)N[C@@H](Cc2ccc(O)cc2)C(=O)N[C@@H](CC(=O)O)C1=O [compound 1211] ({CH2CO}-[Phe(3-Me)]YD[NHexGly]Y[Nle]NR[NMeNle][Ahp(2)]PVDCG-OH; thioether N-14),22.1
12,CCCCCCN1CC(=O)N[C@@H](Cc2ccc(O)cc2)C(=O)N[C@@H](CC(C)C)C(=O)N[C@@H](CC(N)=O)C(=O)N[C@@H](CCCNC(=N)N)C(=O)N(C)[C@@H](CCCC)C(=O)N[C@@H](CCCCC)C(=O)N2CCC[C@H]2C(=O)N[C@@H](C(C)(C)C)C(=O)N[C@@H](CO)C(=O)N[C@H](C(=O)NCC(N)=O)CSCC(=O)N[C@@H](Cc2ccc(C(N)=O)cc2)C(=O)N[C@@H](Cc2ccc(O)cc2)C(=O)N[C@@H](CC(=O)O)C1=O [compound 1212] ({CH2CO}-[Phe(4-CONH2)]YD[NHexGly]YLNR[NMeNle][Ahp(2)]P[Tle]SCG-NH2; thioether N-14),13.1
13,CCCCCCN1CC(=O)N[C@@H](Cc2ccc(O)cc2)C(=O)N[C@@H](CC(C)C)C(=O)N[C@@H](CC(N)=O)C(=O)N[C@@H](CCCNC(=N)N)C(=O)N(C)[C@@H](CCCC)C(=O)N[C@@H](CCCCC)C(=O)N2CCC[C@H]2C(=O)N[C@@H](C(C)C)C(=O)N[C@@H](CO)C(=O)N[C@H](C(=O)NCC(N)=O)CSCC(=O)N[C@@H](Cc2ccc(C(N)=O)cc2)C(=O)N[C@@H](Cc2ccc(O)cc2)C(=O)N[C@@H](CC(=O)O)C1=O [compound 1213] ({CH2CO}-[Phe(4-CONH2)]YD[NHexGly]YLNR[NMeNle][Ahp(2)]PVSCG-NH2; thioether N-14),27.1
14,CCCCCCN1CC(=O)N[C@@H](Cc2ccc(O)cc2)C(=O)N[C@@H](CC(C)C)C(=O)N[C@@H](CC(N)=O)C(=O)N[C@@H](CCCNC(=N)N)C(=O)N(C)[C@@H](CCCC)C(=O)N[C@@H](CCCCC)C(=O)N2CCC[C@H]2C(=O)N[C@@H](C(C)C)C(=O)N[C@@H](CO)C(=O)N[C@H](C(=O)NCC(N)=O)CSCC(=O)N[C@@H](Cc2ccc(C)cc2)C(=O)N[C@@H](Cc2ccc(O)cc2)C(=O)N[C@@H](CC(=O)O)C1=O [compound 1214] ({CH2CO}-[Phe(4-Me)]YD[NHexGly]YLNR[NMeNle][Ahp(2)]PVSCG-NH2; thioether N-14),23.3
15,CCCCCCN1CC(=O)N[C@@H](Cc2ccc(O)cc2)C(=O)N[C@@H](CC(C)C)C(=O)N[C@@H](CC(N)=O)C(=O)N[C@@H](CCCNC(=N)N)C(=O)N(C)[C@@H](CCCC)C(=O)N[C@@H](CCCCC)C(=O)N2CCC[C@H]2C(=O)N[C@@H](C(C)(C)C)C(=O)N[C@@H](CO)C(=O)N[C@H](C(=O)NCC(N)=O)CSCC(=O)N[C@@H](Cc2ccc(C)cc2)C(=O)N[C@@H](Cc2ccc(O)cc2)C(=O)N[C@@H](CC(=O)O)C1=O [compound 1215] ({CH2CO}-[Phe(4-Me)]YD[NHexGly]YLNR[NMeNle][Ahp(2)]P[Tle]SCG-NH2; thioether N-14),16.7
